Measured values: patent publication US20240118263A1, “TARGET FOR SCREENING ANTI-TUMOR DRUG, USE THEREOF AND SCREENING METHOD THEREFOR” (SHENYANG FUYANG PHARMACEUTICAL TECHNOLOGY CO., LTD., priority 2019, published 2024)
Read-outs that look alike come from different tables or passages of the source.

How the values were obtained:
[1] = tested on: mouse melanoma B16-BL6 cells; test: cells; format: cell-based
Text: MTT reduction method is used.

SelH = SelH (Homo sapiens, UniProt Q8IZQ5, U44C); test: Surface plasmon resonance (SPR) detection of affinity between compounds and SelH; format: binding; settings: for binding activity to the SelH (in words): ranking within the table's compounds
Text: A Cys-deficient Escherichia coli expression system was adopted, which is an effective method to prepare selenoprotein found in recent years. Itsbasic principle is as follows: the characteristic that Cys transfer RNA (tRNACys) can bind to Sec was utilized, and a culture medium which is lack of cysteine (Cys) and rich in Selenium cysteine (Sec) was used for culturing a strain, so that Sec was successfully incorporated into newly expressed protein. According to existing literature reports, a human SelH gene sequence was obtained. Selenocysteine of the SelH is in the middle of the sequence and was terminated here during prokaryotic expression, so that the selenocysteine was mutated from a triple codon TGA of the selenocysteine into TGC, which was synthesized by the Sangon Bioengineering (Shanghai) Co., Ltd. In addition, the adopted SPP system was a single protein production system, and a principle of the SPP system was to induce MazF enzyme (mRNA interfering enzyme for cutting RNA on an ACA nucleotide sequence) to cause growth arrest of thalli. The enzyme can specifically recognize and cut the ACA sequence and prevent synthesis of other background proteins in bacteria. Therefore, when mRNA of the desired target protein was encoded, if the mRNA can be designed into a form lacking an ACA base triplet according to an amino acid encoding rule and was induced at 15° C. by using a pCold vector in cells expressing MazF, the mRNA was not enzymatically hydrolyzed, only a protein derived from the mRNA was generated, and there was little synthesis of other cell proteins.
A pColdI-selH plasmid was transformed into BL21 (DE3) Cys-deficient Escherichia coli, so as to obtain a defective expression bacterium pColdI-selH. Sec was added during culture, making it become selenium-containing protein. The target protein was purified by using Ni^2+ column chelating chromatography, and impure protein was eluted by using an imidazole eluent of different concentrations to finally obtain the target protein. Soluble SelH protein was finally obtained, and SDS-PAGE (sodium dodecyl sulfate polyacrylamide gel electrophoresis) analysis was carried out.
A surface plasmon resonance (SPR) method was adopted to detect the interaction condition of a small molecule and a protein, so that the screening of drugs targeting SelH was carried out.
Purified SelH was diluted into a 50 μg/mL protein solution by using 10 mM sodium acetate with a pH value of 5.5, the purified SelH was fixed onto a CM5 chip by an amino coupling method by using Biacore 8K (GE Healthcard, Sweden), and an RU value was recorded.
An isopentenyl or isovaleryl substituted coumarin compound, or a triterpenoid compound with an isopentenyl-like structure (the compound specifically includes aurapten, protopanaxadiol, iso-imperatorin, decursin, osthol, notoginsenoside R1 and shionon) was dissolved in 100% DMSO to be prepared into solutions containing 5% DMSO of different concentrations (0, 31.25, 62.5, 125, 250 and 500 μM) by using a 1.05×PBS-P^+ buffer solution (GE Healthcare, obtained by diluting 10×PBS-P^+).
A single-cycle kinetics method was adopted, the 1.05×PBS-P^+ buffer solution containing 5% DMSO was used as a Running Buffer, different compounds of different concentrations flowed through the SelH fixed onto the chip, wherein the binding time was 120 s, and the change condition of the RU value was recorded. An equilibrium dissociation constant (KD) was calculated by using software in Biacore 8K so as to evaluate the binding affinity between the protein and the compounds. The SPR detection result of the affinity between compounds and SelH in Embodiment 2 of the present disclosure is as shown in FIG. 1A-G, and the result statistics is as shown in Table 1.
(1) Screening of small molecule drugs by taking SelH as a target A surface plasmon resonance (SPR) method was adopted to detect the interaction condition of a small molecule and a protein, so that the screening of drugs targeting SelH was carried out. […]

[2] = tested on: human non-small cell lung cancer cells A549; test: MTT in-vitro anti-tumor activity test, A549
Procedure: (§1) Experimental Materials Human non-small cell lung cancer cells A549, mouse breast cancer cells 4T-1 and mouse melanoma B16-BL6 were purchased from American Type Current Collection (ATCC, Rockville, MD, USA). An RPMI-1640 culture solution containing 10% of fetal calf serum and 2% of glutamine was inoculated with the A549, 4T-1 and B16-BL6 cells, and the cells were incubated at 37° C. in a 5% CO2 incubator.
(§2) The compounds were dissolved in DMSO under a sterile condition, and the obtained solutions were diluted to required concentrations by using an RPMI 1640 culture solution, wherein the final concentration of the DMSO was less than 0.5%.
(§3) A549, 4T-1 and B16-BL6 were used as adherent cells, adherent tumor cells in a logarithmic phase were selected, digested with pancreatin, and then prepared into a cell suspension of 5×10^4/ml with a culture medium containing 10% of calf serum, a 96-well culture plate was inoculated with the cell suspension, wherein each well contained 100 μl of the cell suspension, and incubation was carried out for 24 h at 37° C. and 5% CO2. Replacing was carried out with a new culture solution containing the samples to be detected of different concentrations in the experimental groups, replacing was carried out with a culture solution containing a same volume of solvent in the control group, three parallel wells were set in each group, and incubation was carried out for 48 hours at 37° C. and 5% CO2. The supernate was discarded, careful washing was carried out with PBS twice, 100 μl of a freshly prepared culture medium containing 0.5 mg/ml of MTT was added into each well, and incubation was continued to be carried out at 37° C. for 4 h. The supernatant was carefully discarded, 150 μl of DMSO was added, uniform mixing was carried out for 10 min by using a micro oscillator, and the optical density value was measured at 492 nm by using a microplate reader.
(§4) Tumor cell growth inhibition ratio (%)=[A492 (negative control)−A492 (dosing group)]/A492 (negative control)×100%
(§5) The median inhibitory concentration (IC50) of the sample is calculated.

[3] = tested on: mouse breast cancer 4T1 cells; test: MTT in-vitro anti-tumor activity test, 4T1; settings: read-out: IC50 cytotoxic effect on 4T1
Procedure: as §1, §2, §3, §4, §5

[4] = tested on: human non-small cell lung cancer cells A549
Procedure: as §1, §2, §3, §4, §5

[5] = tested on: mouse breast cancer 4T1 cells
Procedure: as §1, §2, §3, §4, §5

[6] = read-out: IC50 cytotoxic effect on B16-BL6, MTT, 48 hours, Table 1
[7] = SPR Biacore 8K, single-cycle kinetics, Table 1, read-out: Dissociation constant KD of compounds and SelH
[8] = read-out: IC50 cytotoxic effect on A549, MTT, 48 hours, Table 1
[9] = Mus musculus, B16-BL6, 48 h, read-out: IC50 cytotoxic effect on B16-BL6
[10] = SPR Biacore 8K, single-cycle kinetics, Table 3, read-out: KD binding of macrolides and cyclic peptides to SelH
[11] = Homo sapiens, A549, 48 h, read-out: A549 IC50 cytotoxicity
[12] = Mus musculus, B16-BL6, read-out: IC50 cytotoxic effect on B16-BL6, MTT, 48 hours, Table 1
[13] = Homo sapiens, A549, 48 h, read-out: IC50 cytotoxic effect on A549
[14] = SPR Biacore 8K, single-cycle kinetics, Table 2, read-out: Dissociation constant KD of compounds and SelH

CC(C)=CCCC(C)(O)[C@H]1CC[C@]2(C)[C@@H]1[C@H](O)C[C@@H]1[C@@]3(C)CC[C@H](O)C(C)(C)[C@@H]3CC[C@]12C (stereo in doubt) [Protopanaxadiol, protopanoxadiol]
IC50 [1, 6]: 58 µM
Kd (SelH; [7]): 6.71e-05 µM
binding activity to the SelH (in words) (SelH): strongest
IC50 [2, 8]: 54.4 µM
IC50 ([3]; MTT, 48 hours): 30.9 µM

CC(=O)O[C@H](CC=C(C)C)C1=CC(=O)c2c(O)ccc(O)c2C1=O [Acetyl Shikonin, acetyl shikonin]
IC50 [1, 9]: 4.44 µM
Kd (SelH): 0.000464 µM
binding activity to the SelH (in words) (SelH): strongest

CC(C)=CCC/C(C)=C/COc1ccc2ccc(=O)oc2c1 [Aurapten, aurapten]
IC50 [1]: 61.9 µM
Kd (SelH; [7]): 1.53e-05 µM
IC50 [4]: 51.9 µM
IC50 [5]: 37.7 µM

CC[C@H]1OC(=O)[C@H](C)[C@@H](O[C@H]2C[C@@](C)(OC)[C@@H](O)[C@H](C)O2)[C@H](C)[C@@H](O[C@@H]2O[C@H](C)C[C@H](N(C)C)[C@H]2O)[C@](C)(O)C[C@@H](C)CN(C)[C@H](C)[C@@H](O)[C@]1(C)O [Azithromycin, azithromycin]
Kd (SelH; [10]): 537 µM
binding activity to the SelH (in words) (SelH): weakest
IC50 [2, 11]: 72.4 µg/mL

CO[C@@H]1[C@@H](O[C@@H]2O[C@H](C)[C@@H](O[C@H]3C[C@@](C)(O)[C@@H](OC(=O)CC(C)C)[C@H](C)O3)[C@H](N(C)C)[C@H]2O)[C@@H](CC=O)C[C@@H](C)C(=O)/C=C/[C@@H]2O[C@H]2C[C@@H](C)OC(=O)C[C@H]1OC(C)=O [Carbomycin, carbomycin]
Kd (SelH; [10]): 4.4 µM
A549 IC50 cytotoxicity [4]: 11.79 µg/mL

CC(C)=CC(=O)O[C@H]1Cc2cc3ccc(=O)oc3cc2OC1(C)C [Decursin, decursin]
IC50 [1, 12]: 67.8 µM
Kd (SelH; [7]): 0.00205 µM
IC50 [2, 13]: 60 µM
IC50 ([3]; Mus musculus, 4T1, 48 h): 38.2 µM

CC[C@H]1OC(=O)[C@H](C)[C@@H](O[C@H]2C[C@@](C)(OC)[C@@H](O)[C@H](C)O2)[C@H](C)[C@@H](O[C@@H]2O[C@H](C)C[C@H](N(C)C)[C@H]2O)[C@](C)(O)C[C@@H](C)C(=O)[C@H](C)[C@@H](O)[C@]1(C)O [Erythromycin, erythromycin]
Kd (SelH; [10]): 10.4 µM
IC50 [2, 11]: 230 µg/mL

CC(C)=CCOc1c2ccoc2cc2oc(=O)ccc12 [Iso-imperatorin, iso-imperatorin]
IC50 [1, 12]: 75.2 µM
Kd (SelH; [7]): 7.53e-05 µM
binding activity to the SelH (in words) (SelH): strongest
IC50 [2, 13]: 72.5 µM
IC50 ([3]; Mus musculus, 4T1, 48 h): 48.9 µM

COc1cc(O)c(CC=C(C)C)c2c1C(=O)CC(c1ccc(O)cc1)O2 (stereo not drawn) [Isoxanthohunol, isoxanthohunol]
IC50 [1]: 29 µM
Kd (SelH; [14]): 2.43 µM

CC(C)=CCc1c(-c2ccc(O)cc2O)oc2c3c(cc(O)c2c1=O)OC(C)(C)C=C3 [Morusin, morusin]
IC50 ([1]; Mus musculus, B16-BL6, read-out: IC50 cytotoxic effect on B16-BL6, MTT, 48 hours, Table 2): 37.9 µM
Kd (SelH; [14]): 4030 µM
binding activity to the SelH (in words) (SelH): weakest

CC(C)=CCC[C@](C)(O[C@@H]1O[C@H](CO)[C@@H](O)[C@H](O)[C@H]1O)[C@H]1CC[C@]2(C)[C@@H]1[C@H](O)C[C@@H]1[C@@]3(C)CC[C@H](O)C(C)(C)[C@@H]3[C@@H](O[C@@H]3O[C@H](CO)[C@@H](O)[C@H](O)[C@H]3O[C@@H]3OC[C@@H](O)[C@H](O)[C@H]3O)C[C@]12C [Notoginsenoside R1, notoginsenoside R1]
IC50 [1, 6]: 111 µM
Kd (SelH; [7]): 563 µM
binding activity to the SelH (in words) (SelH): weakest
IC50 [4]: 126 µM
IC50 [5]: 100 µM

COc1ccc2ccc(=O)oc2c1CC=C(C)C [Osthol, osthol]
IC50 [1, 6]: 100 µM
Kd (SelH; [7]): 0.0851 µM
IC50 [2, 8]: 81.2 µM
IC50 ([3]; MTT, 48 hours): 67.4 µM

CC(C)=CC[C@@H](O)C1=CC(=O)c2c(O)ccc(O)c2C1=O [Shikonin, shikonin]
IC50 [1, 9]: 13 µM
Kd (SelH): 5.42 µM

CC(C)=CCC[C@]1(C)CC[C@]2(C)[C@H]3CC[C@@]4(C)[C@@H](CCC(=O)[C@@H]4C)[C@]3(C)CC[C@@]2(C)C1 [Shionon, shionon]
IC50 [1, 6]: 93.9 µM
Kd (SelH; [7]): 0.00676 µM
IC50 [2, 8]: 92.7 µM
IC50 ([3]; MTT, 48 hours): 82.4 µM

CO[C@@H]1[C@@H](O[C@@H]2O[C@H](C)[C@@H](O[C@H]3C[C@@](C)(O)[C@@H](O)[C@H](C)O3)[C@H](N(C)C)[C@H]2O)[C@@H](CC=O)C[C@@H](C)[C@@H](O[C@H]2CC[C@H](N(C)C)[C@@H](C)O2)/C=C/C=C/C[C@@H](C)OC(=O)C[C@H]1O [Spiramycin, spiramycin]
Kd (SelH; [10]): 4.38 µM
A549 IC50 cytotoxicity ([2]; MTT, 48 hours, Table 3): 18.33 µg/mL

C=C(NC(=O)C(=C)NC(=O)c1csc(C2=N[C@@H]3c4csc(n4)[C@H]4NC(=O)c5csc(n5)[C@H]([C@](C)(O)[C@@H](C)O)NC(=O)[C@H]5CSC(=N5)/C(=C/C)NC(=O)[C@H]([C@@H](C)O)NC(=O)c5csc(n5)[C@]3(CC2)NC(=O)[C@H](C)NC(=O)C(=C)NC(=O)[C@H](C)NC(=O)[C@H]([C@@H](C)CC)N[C@@H]2C=Cc3c([C@H](C)O)cc(nc3[C@H]2O)C(=O)O[C@@H]4C)n1)C(N)=O [Thiostrepton, thiostrepton]
Kd (SelH; [10]): 19.9 µM
IC50 [2, 11]: 9.66 µg/mL

COc1c(O)cc2oc3cc(O)c(CC=C(C)C)c(O)c3c(=O)c2c1CC=C(C)C [α-mangostin]
IC50 ([1]; read-out: IC50 cytotoxic effect on B16-BL6, MTT, 48 hours, Table 2): 40.2 µM
Kd (SelH; [14]): 398 µM
